Assay results reported in patent US4463007A, “Triazoloquinazolinones, and compositions and methods for treating allergic disorders with them” (BASF Aktiengesellschaft, priority 1981, dated 1984).

System: PCA in rats
Assay: Passive cutaneous anaphylaxis (PCA) in rats, anti-allergic action, oral administration
Type: in vivo, rat
Details: for ED50: Rattus norvegicus, dose which reduces diameter of color patch by 50% relative to non-medicated controls, read-out: Inhibition of PCA in rats, ED 50%; for ED50 / R.A. (relative activity) / times more active than the comparative compound Pirquinozol: oral; for R.A. (relative activity): Pirquinozol = 1.00
Method: The anti-allergic action was tested on rats, using the passive cutaneous anaphylaxis (PCA) model.
Narcotized male rats (100 to 140 g) are sensitized by intradermal injection (into the shaved dorsal skin) of 0.1 ml of an ovalbumin antiserum. After a sensitization period of about 48 hours, the treatment (intraperitoneal or oral administration) is carried out with various dosages (10 animals/dose)of the test substances. 15-20 minutes after treatment, an antigen/Evans blue mixture (10 mg/kg of ovalbumin in 2% strength Evans blue solution) is injected intravenously into the test animals. 30 minutes later, the animals are sacrificed, the dorsal skin is removed and the diameter of the circular blue coloration is measured on the inner surface. The size of the color patches of untreated control animals can be standardized. Anti-allergic substances reduce the diameter of the color patch by an amount dependent on the dose. The ED 50% is quoted as the dose which reduces the diameter of the color patch by 50% relative to that of non-medicated control animals. In addition to the anti-allergic action, the acute toxicity was determined for intraperitoneal administration, using groups of 2 NMRI mice, each weighing 20-26 g, and for oral administration, using groups of 2 Sprague-Dawley rats, each weighing 120-150 g. The LD 50 was determined on groups of 10 NMRI mice, each weighing 20-26 g, after intraperitoneal administration. The post-observation period was 14 days.

Structure (SMILES)	ED50 [mg/kg]	activity in oral doses (in words) (oral doses of up to 100 mg/kg, PCA rats)	R.A. (relative activity) (PCA rats)	times more active than the comparative compound Pirquinozol (PCA rats) [times]
O=C(O)c1cc(=O)c2c(OCC(O)COc3cccc4oc(C(=O)O)cc(=O)c34)cccc2o1 [Cromolyne, reference compound]	> 100	inactive	–	–
CCOC(=O)c1nc2c3ccccc3n(C)c(=O)n2n1 [Example 13, Ethyl 6-methyl-1,2,4-triazolo[1,5-c]quinazolin-5-one-2-carboxylate]	0.518	–	2.29	–
CCOC(=O)c1nc2c3ccccc3n(CC)c(=O)n2n1 [Example 14, Ethyl 6-ethyl-1,2,4-triazolo[1,5-c]quinazolin-5-one-2-carboxylate]	0.707	–	1.68	–
CCOC(=O)c1nc2c3cc(C)ccc3n(CC)c(=O)n2n1 [Example 17, Ethyl 6-ethyl-9-methyl-1,2,4-triazolo[1,5-c]quinazolin-5-one-2-carboxylate]	0.271	–	4.39	4.4
CCOC(=O)c1nc2c3cc(Cl)ccc3n(C)c(=O)n2n1 [Example 20, Ethyl 9-chloro-6-methyl-1,2,4-triazolo[1,5-c]quinazolin-5-one-2-carboxylate]	0.723	–	1.64	–
CCOC(=O)c1nc2c3cc(C)ccc3n(C)c(=O)n2n1 [Example 25, Ethyl 6,9-dimethyl-1,2,4-triazolo[1,5-c]quinazolin-5-one-2-carboxylate]	0.617	–	1.92	–
CCOC(=O)c1nc2c3cc(C)c(C)cc3n(C)c(=O)n2n1 [Example 27, Ethyl 6,8,9-trimethyl-1,2,4-triazolo[1,5-c]quinazolin-5-one-2-carboxylate]	1	–	1.19	1.2
CCOC(=O)c1nc2c3cc(C)c(C)cc3n(CC)c(=O)n2n1 [Example 28, Ethyl 8,9-dimethyl-6-ethyl-1,2,4-triazolo[1,5-c]quinazolin-5-one-2-carboxylate]	0.876	–	1.36	–
O=c1[nH]c2ccccc2c2cc(CO)nn12 [Pirquinozol, reference compound]	1.19	–	1.00	–
